Test results reported in patent publication US7772285B2, “Benzophenone derivatives or salts thereof” (Toyama Chemical Co., Ltd., priority 2001, dated 2010).

Key:
[1] = biological target: T1, AP-1 complex (Fos/Jun peptide) (Homo sapiens, UniProt P01100+P05412); experiment: Effect on AP-1 binding activity to AP-1 recognition sequence (ELISA); settings: inhibition of binding of digoxigenin-labeled AP-1 binding sequence oligonucleotide to Fos/Jun peptide, absorbance 492 nm, read-out: Concentration (μM) at 50% inhibition
T1 construct: made in house; host or cells: chemical peptide synthesis (no expression host)
T1 sequence (P01100 137-200 limits assumed): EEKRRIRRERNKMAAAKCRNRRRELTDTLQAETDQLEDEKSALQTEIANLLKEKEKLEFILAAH
T1 sequence (P05412 252-315 limits assumed): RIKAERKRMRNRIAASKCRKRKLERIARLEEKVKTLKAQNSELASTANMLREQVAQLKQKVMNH
Description: Test Example 1 Effect on AP-1 Binding Activity to AP-1 Recognition Sequence (ELISA)
Jun peptide and Fos peptide with its N-terminal labeled with biotin via 4 glycine residues containing a DNA binding site [Nature, Vol. 373, 1995, 257-261] were synthesized. Each of the peptides was dissolved in Tris buffer [20 mM Tris-hydrochloric acid (pH 7.5), 50 mM potassium chloride, 1 mM ethylenediaminetetraacetic acid, 10 mM magnesium chloride, 1 mM dithiothreitol, 0.5 M guanidinohydrochloric acid, 30% glycerol], and equimolar amounts of the peptide solutions were mixed with each other to be used as an AP-1 complex (Fos/Jun peptide). The AP-1 complex was added onto a 96-well avidin-coated ELISA plate (10 pmol/well). The plate was washed, blocked by bovine serum albumin, and used for binding assay.
Digoxigenin-labeled double-stranded oligonucleotide (22mer) that contained AP-1 binding sequence (3′-TGAGTCA-5′) synthesized by conventional procedure was reacted in binding reaction solution [25 mM tris-hydrochloric acid (pH 7.9), 0.5 mM ethylenediaminetetraacetic acid, 0.05% Nonidet P-40, 10% glycerol] for 30 minutes at room temperature in the presence or absence of samples. After the reaction, unbound labeled oligonucleotide was removed by washing with HEPES buffer containing 0.05% Tween-20. Then peroxidase-labeled anti-digoxigenin antibody was added to react with the labeled oligonucleotide bound to AP-1. After removing excess antibody by washing with HEPES buffer containing 0.05% Tween-20, incubation was conducted for a certain period with o-phenylene diamine as a substrate in 100 mM citric acid buffer (pH 5.0) containing hydrogen peroxide, sulfuric acid solution was added to each well, and the absorbance (492 nm) was measured. Inhibition rate of each sample was calculated from the absorbance obtained in the binding assay carried out in the presence of the sample, taking the absorbance obtained in the absence of the sample=100%.

[2] = tested on: Male DBA/1J mice; experiment: Type II collagen-induced arthritis in mouse; format: in vivo; settings: 10 mg/kg orally once a day from 21 to 35 days after the initial inoculation, vs control group; for Bone destruction inhibition rate: X-ray bone destruction score 36 days after initial inoculation; for Arthritis inhibition rate: arthritis score on 36 days after initial inoculation
Description: Test Example 2 Type II Collagen-Induced Arthritis in Mouse
Male DBA/1J mice aged 8 weeks (Charles River Japan) were used. To a solution of 2 mg/mL bovine type II collagen in 0.1 mol/L acetic acid (Koken), an […] of Freund's complete adjuvant (DIFCO) was added to prepare an emulsion, and 0.2 ml of the emulsion was subcutaneously injected in the tail root region of each mouse. The same treatment was given 21 days after the initial inoculation to induce arthritis in the mice. Test compounds were each suspended in 0.5% methylcellulose solution, and 10 mg/kg of each test compound was given orally to mice once a day from 21 to 35 days after the initial inoculation. To a control group (a negative control group), 0.5% methylcellulose solution was given in the same manner.
Taking the maximum score as 12, the arthritis score was calculated to evaluate the severity of arthritis that was evaluated in the following manner: score 0: no change; score 1: swelling on one or two toes, or slight swelling in the carpal and tarsal joints; score 2: swelling and rubor in more joints; score 3: extensive swelling over whole foreleg or hindleg; and total of the four legs was calculated.
X-ray photographs of four paws were taken 36 days after the initial inoculation, and the severity of bone destruction was evaluated as bone destruction score on a maximum scale, the sum of the points for extremities, of 105 points: 0 or 0.5 points in accordance with presence or absence of osteoporosis in the joints and their vicinity, and for bone erosion, no change at 0 point; “partial bone destruction” at 1 point and “complete bone destruction” at 2 points in the second to fifth interdigital joints, the first to fifth metacarpal and metatarsal joints, and carpal, tarsal and calcaneal regions. Inhibition rate was calculated using the following equation: Inhibition rate(%)=100−(score of the group given the test compound/score of the control group)×100

Row | SMILES | IC50 [1] | Bone destruction inhibition rate [2] | Arthritis inhibition rate [2]
1 | O=C(O)CCc1cc(C(=O)c2ccc(OC3CCCC3)cc2O)ccc1OCc1ccc(C(=O)O)cc1O [32(1), 4-({2-(2-carboxyethyl)-4-[4-(cyclopentyloxy)-2-hydroxybenzoyl]phenoxy}methyl)-3-hydroxybenzoic acid] | 310 µM |  | 
2 | O=C(O)CCc1ccc(COc2ccc(C(=O)c3ccc(OC4CCCC4)cc3O)cc2CCC(=O)O)cc1 [49(1)] | 330 µM |  | 
3 | Cc1cc(C(=O)O)ccc1COc1ccc(C(=O)c2ccc(OC3CCCC3)cc2O)cc1CCC(=O)O [49(3)] | 240 µM |  | 
4 | CC(C)COc1ccc(C(=O)c2ccc(OCc3ccc(C(=O)NS(C)(=O)=O)cc3)c(CCC(=O)O)c2)c(O)c1 [49(8)] | 320 µM |  | 
5 | CC(C)COc1ccc(C(=O)c2ccc(OCc3ccc(C(=O)O)cc3)c(CCC(=O)O)c2)c(OCC(C)C)c1 [49(9)] | 490 µM |  | 
6 | COc1cc(COc2ccc(C(=O)c3ccc(OC4CCCC4)cc3O)cc2CCC(=O)O)ccc1CCC(=O)O [49(11)] | 390 µM |  | 
7 | CC(Oc1ccc(C(=O)c2ccc(OC3CCCC3)cc2O)cc1CCC(=O)O)c1ccc(C(=O)O)cc1 (centres unmarked) [49(12)] | 700 µM | 76% | 50%
8 | O=C(O)CCc1cc(C(=O)c2ccc(-c3cccs3)cc2O)ccc1OCc1ccc(C(=O)O)cc1 [49(16)] | 380 µM |  | 
9 | CC(C)(C)COc1ccc(C(=O)c2ccc(OCc3ccc(C(=O)O)cc3)c(CCC(=O)O)c2)c(O)c1 [49(19)] | 280 µM |  | 
10 | O=C(O)CCc1cc(C(=O)c2ccc(OC3CCCCC3)cc2O)ccc1OCc1ccc(C(=O)O)cc1 [49(20)] | 320 µM |  | 
11 | O=C(O)CCc1cc(C(=O)c2ccc(CC3CCCC3)cc2O)ccc1OCc1ccc(C(=O)O)cc1 [49(22)] | 200 µM |  | 
12 | O=C(O)CCc1cc(C(=O)c2ccc(OCC3CCCC3)cc2O)ccc1OCc1ccc(C(=O)O)cc1 [49(29)] | 220 µM |  | 
13 | O=C(O)CCc1cc(C(=O)c2ccc(C3CCCC3)cc2O)ccc1OCc1ccc(C(=O)O)cc1 [49(39)] | 360 µM |  | 
14 | O=C(O)CCc1cc(C(=O)c2ccc(OCc3ccco3)cc2O)ccc1OCc1ccc(C(=O)O)cc1 [49(40)] | 280 µM |  | 
15 | CC(C)COc1cc(COc2ccc(C(=O)c3ccc(OC4CCCC4)cc3O)cc2CCC(=O)O)ccc1C(=O)O [49(46)] | 320 µM |  | 
16 | CC(C)COc1ccc(C(=O)c2ccc(OCc3ccc(C(=O)O)cc3)c(CCC(=O)O)c2)c(O)c1 [49(47)] | 460 µM |  | 
17 | CCOC(=O)c1ccc(COc2ccc(C(=O)c3ccc(OC4CCCC4)cc3O)cc2CCC(=O)O)cc1OC [54(2), 3-(5-[4-(cyclopentyloxy)-2-hydroxybenzoyl]-2-{[4-(ethoxycarbonyl)-3-methoxybenzyl]oxy}phenyl) propanoic acid] |  | 78% | 65%
18 | CCOC(=O)CCc1cc(C(=O)c2ccc(OCC(C)C)cc2O)ccc1OCc1ccc(C(=O)O)cc1 [72(1), 4-{[2-(3-ethoxy-3-oxopropyl)-4-(2-hydroxy-4-isobutoxybenzoyl)phenoxy]methyl} benzoic acid] | 240 µM |  | 
19 | O=C(CCc1cc(C(=O)c2ccc(OC3CCCC3)cc2O)ccc1OCc1ccc2c(O)noc2c1)OCCN1CCOCC1 [Example 76, 2-(4-morpholinyl) ethyl 3-{5-[4-(cyclopentyloxy)-2-hydroxybenzoyl]-2-[(3-hydroxy-1,2-benzisoxazol-6-yl)methoxy]phenyl} propanoate] |  | 99% | 90%

Now from value to compound, other results behind:

Row | IC50 [1] | SMILES | Bone destruction inhibition rate [2] | Arthritis inhibition rate [2]
20 | 310 µM | CC(C)COc1ccc(C(=O)c2ccc(OCc3ccc(C(=O)NO)cc3)c(CCC(=O)O)c2)c(O)c1 [49(48)] |  | 
21 | 300 µM | O=C(O)CCc1cc(C(=O)c2ccc(OC3CCCC3)cc2O)ccc1OCc1ccc(C(=O)O)cc1F [49(51)] |  | 
22 | 270 µM | O=C(O)CCc1cc(C(=O)c2ccc(OC3CCCC3)cc2O)ccc1OCc1ccc(S(=O)(=O)O)cc1 [49(54)] |  | 
23 | 130 µM | O=C(O)CCc1cc(C(=O)c2ccc(OCC3CCCCC3)cc2O)ccc1OCc1ccc(C(=O)O)cc1 [49(56)] |  | 
24 | 190 µM | O=C(O)CCc1cc(C(=O)c2ccc(OC3CCCCCC3)cc2O)ccc1OCc1ccc(C(=O)O)cc1 [49(58)] |  | 
25 | 580 µM | CS(=O)(=O)NC(=O)c1ccc(COc2ccc(C(=O)c3ccc(OC4CCCC4)cc3O)cc2CCC(=O)O)cc1 [49(62)] |  | 
26 | 180 µM | O=C(O)CCc1cc(C(=O)c2ccc(OC3CCCC3)cc2O)ccc1OCc1ccc2[nH]c(=O)[nH]c(=O)c2c1 [49(70)] |  | 
27 | 380 µM | CN1CCN(c2ccc(COc3ccc(C(=O)c4ccc(OC5CCCC5)cc4O)cc3CCC(=O)O)cc2)C(=O)C1=O [49(76)] |  | 
28 | 380 µM | O=C(O)CCc1cc(C(=O)c2ccc(OC3CCCC3)cc2O)ccc1OCc1nc2cc(C(=O)O)ccc2s1 [49(77)] |  | 
29 | 290 µM | O=C(O)CCc1cc(C(=O)c2ccc(OC3CCCC3)cc2O)ccc1OCc1ccc2c(O)noc2c1 [Example 35, 3-{5-[4-(cyclopentyloxy)-2-hydroxybenzoyl]-2-[(3-hydroxyl-1,2-benzisoxazol-6-yl)methoxy]phenyl}propanoic acid] | 92% | 76%
30 | 420 µM | O=C(O)CCc1cc(C(=O)c2ccc(OC3CCCC3)cc2O)ccc1OCc1ccc(C(=O)O)cc1 [Example 44, 4-({2-(2-carboxyethyl)-4-[4-(cyclopentyloxy)-2-hydroxybenzoyl]phenoxy}methyl) benzoic acid] |  | 
31 | 140 µM | O=C(O)CCc1cc(C(=O)c2ccc(OC3CCCC3)cc2O)ccc1OCc1csc2c(C(=O)O)cccc12 [Example 45, 3-({2-(2-carboxyethyl)-4-[4-(cyclopentyloxy)-2-hydroxybenzoyl]phenoxy}methyl)-1-benzothiophene-7-carboxilic acid] | 81% | 55%
32 | 330 µM | O=C(O)/C=C/c1ccc(COc2ccc(C(=O)c3ccc(OC4CCCC4)cc3O)cc2CCC(=O)O)cc1 [Example 46, (E)-3-(4-{[4-[4-(cyclopentyloxy)-2-hydroxybenzoyl]-2-(3-hydroxy-3-oxopropyl)phenoxy]methyl}phenyl)-2-propenoic acid] |  | 
33 | 170 µM | O=C(O)CCc1cc(C(=O)c2ccc(OC3CCCC3)cc2O)ccc1OCc1ccc(-c2cc(O)no2)cc1 [Example 47, 3-(5-[4-(cyclopentyloxy)-2-hydroxybenzoyl]-2-{[4-(3-hydroxy-5-isoxazolyl)benzyl]oxy}phenyl) propanoic acid] |  | 
34 | 700 µM | COc1cc(COc2ccc(C(=O)c3ccc(OC4CCCC4)cc3O)cc2CCC(=O)O)ccc1C(=O)O [Example 48, 4-({2-(2-carboxyethyl)-4-[4-(cyclopentyloxy)-2-hydroxybenzoyl]phenoxy}methyl)-2-methoxybenzoic acid] | 64% | 57%
